Results taken from ChEMBL document CHEMBL3044881, “Synthesis and biological evaluation of novel series of chalcone derivatives as inhibitors of cyclooxygenase and LPS-induced TNF- with potent antioxidant properties” (Med Chem Res, 2012).

How the values were obtained:
[1] = molecular target: Trypsin (Homo sapiens) (UniProt P07477+P07478+P35030); assay: Inhibition of trypsin (unknown origin) assessed as hydrolysis of bovine serum albumin at 1 mM after 20 min; type: protein assay
[2] = test system: Radical scavenging activity; assay: Antioxidant activity assessed as DPPH free radical scavenging activity at 10 uM by spectrophotometric analysis; type: functional
[3] = molecular target: T1, Prostaglandin G/H synthase 2 (Ovis aries) (UniProt P79208); assay: Inhibition of Ovis aries (sheep) COX2 at 1 mM after 5 min by colorimetric analysis
T1 sequence (whole entry): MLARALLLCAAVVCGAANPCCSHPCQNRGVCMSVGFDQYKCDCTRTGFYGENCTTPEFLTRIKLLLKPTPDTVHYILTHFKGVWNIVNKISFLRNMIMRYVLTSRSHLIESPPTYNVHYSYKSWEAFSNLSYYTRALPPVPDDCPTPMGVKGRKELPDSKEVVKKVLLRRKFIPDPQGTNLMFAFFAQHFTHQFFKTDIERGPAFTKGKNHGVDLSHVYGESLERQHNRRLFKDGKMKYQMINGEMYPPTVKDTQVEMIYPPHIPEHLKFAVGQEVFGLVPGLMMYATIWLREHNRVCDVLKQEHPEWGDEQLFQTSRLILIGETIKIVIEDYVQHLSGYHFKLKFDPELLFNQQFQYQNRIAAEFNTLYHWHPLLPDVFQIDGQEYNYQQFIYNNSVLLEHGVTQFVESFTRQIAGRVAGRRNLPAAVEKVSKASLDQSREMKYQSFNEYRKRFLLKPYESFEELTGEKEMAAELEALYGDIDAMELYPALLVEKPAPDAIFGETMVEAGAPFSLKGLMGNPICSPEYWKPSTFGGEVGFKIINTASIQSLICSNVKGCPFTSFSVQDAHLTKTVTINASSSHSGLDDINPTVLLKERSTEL

[4] = test system: Blood; assay: Anti-inflammatory activity in Homo sapiens (human) whole blood assessed inhibition of LPS-induced TNF-alpha production at 10 uM treated 30 min before LPS challenge measured after 5 hr; type: functional
[5] = test system: Blood; assay: Anti-inflammatory activity in Homo sapiens (human) whole blood assessed inhibition of LPS-induced TNF-alpha production at 1 uM treated 30 min before LPS challenge measured after 5 hr; type: functional
[6] = test system: Blood; assay: Anti-inflammatory activity in Homo sapiens (human) whole blood assessed inhibition of LPS-induced TNF-alpha production treated 30 min before LPS challenge measured after 5 hr; type: functional, tissue-based
[7] = Antioxidant activity assessed as hydroxyl radical scavenging activity at 10 uM by spectrophotometric analysis; type: functional
[8] = Antioxidant activity assessed as reduction of K3Fe(CN)6 to Fe2+ at 10 uM after 10 min; type: functional; set-up: scale not given: the % may be the effect or the level left
[9] = molecular target: T2, Prostaglandin G/H synthase 1 (Ovis aries) (UniProt P05979); details: at 1 mM
T2 sequence (whole entry): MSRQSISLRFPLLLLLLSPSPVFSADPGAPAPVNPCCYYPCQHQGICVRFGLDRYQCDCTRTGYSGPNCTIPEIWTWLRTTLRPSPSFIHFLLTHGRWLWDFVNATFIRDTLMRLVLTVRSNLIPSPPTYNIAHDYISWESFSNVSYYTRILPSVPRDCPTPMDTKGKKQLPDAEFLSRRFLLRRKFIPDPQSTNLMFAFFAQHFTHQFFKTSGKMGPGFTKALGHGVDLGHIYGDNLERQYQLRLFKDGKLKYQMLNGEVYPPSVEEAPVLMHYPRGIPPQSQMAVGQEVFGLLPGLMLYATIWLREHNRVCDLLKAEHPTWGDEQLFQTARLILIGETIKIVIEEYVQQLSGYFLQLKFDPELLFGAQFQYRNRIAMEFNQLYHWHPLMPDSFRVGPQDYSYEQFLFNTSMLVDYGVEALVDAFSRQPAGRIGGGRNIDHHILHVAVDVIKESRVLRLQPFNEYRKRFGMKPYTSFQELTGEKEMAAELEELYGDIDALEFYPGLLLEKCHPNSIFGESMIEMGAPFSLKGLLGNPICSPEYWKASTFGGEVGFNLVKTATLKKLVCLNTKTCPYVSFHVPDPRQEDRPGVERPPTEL
Description: Inhibition of Ovis aries (sheep) COX1 at 1 mM after 5 min by colorimetric analysis

[10] = molecular target: T3, Beta-glucuronidase (Homo sapiens) (UniProt P08236); assay: Inhibition of beta-glucuronidase (unknown origin) using p-nitrophenyl-beta-D-glucopyranosiduronic acid as substrate at 1 mM after 30 min
T3 sequence (whole entry): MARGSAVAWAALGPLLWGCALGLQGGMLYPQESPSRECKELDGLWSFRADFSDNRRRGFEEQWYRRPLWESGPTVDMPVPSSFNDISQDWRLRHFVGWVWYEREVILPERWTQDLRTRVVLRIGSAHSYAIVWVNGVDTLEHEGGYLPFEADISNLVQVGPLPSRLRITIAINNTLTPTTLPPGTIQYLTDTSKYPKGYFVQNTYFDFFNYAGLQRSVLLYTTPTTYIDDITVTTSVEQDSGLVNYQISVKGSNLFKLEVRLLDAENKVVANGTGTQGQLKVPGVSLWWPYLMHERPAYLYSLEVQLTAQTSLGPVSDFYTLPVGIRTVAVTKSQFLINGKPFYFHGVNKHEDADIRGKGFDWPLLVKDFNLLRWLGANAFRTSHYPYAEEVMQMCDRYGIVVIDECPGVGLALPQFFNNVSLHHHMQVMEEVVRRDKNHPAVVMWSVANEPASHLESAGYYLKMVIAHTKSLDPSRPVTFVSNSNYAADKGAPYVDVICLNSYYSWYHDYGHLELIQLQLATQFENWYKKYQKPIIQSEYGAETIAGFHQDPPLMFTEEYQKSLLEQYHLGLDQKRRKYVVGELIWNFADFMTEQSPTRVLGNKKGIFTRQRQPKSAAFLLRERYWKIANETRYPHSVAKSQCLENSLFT

[11] = Homo sapiens, Blood, read-out: IC50

| Compound | inhibition [1] [%] | Activity [2] [%] | inhibition [3] [%] | inhibition at 10 µM [4] [%] | inhibition at 1 µM [5] [%] | IC50 [6, 11] [µM] | Activity [7] [%] | Activity [8] [%] | inhibition [9] [%] | inhibition [10] [%] | IC50 [6] |
| --- | --- | --- | --- | --- | --- | --- | --- | --- | --- | --- | --- |
| COc1ccc(/C=C/C(=O)c2c(OC)cc(OC)c(Br)c2O)c(OC)c1 | 39.5 | 20.2 | 57.8 | 59 | 21 | 10.2 | 28.8 | 18.4 | 52.4 | 41.3 |  |
| C[C@H]1C[C@H]2[C@@H]3CCC4=CC(=O)C=C[C@]4(C)[C@@]3(F)[C@@H](O)C[C@]2(C)[C@@]1(O)C(=O)CO [BETAMETHASONE] |  |  |  | 87 | 72 | 1 |  |  |  |  |  |
| COc1cc(OC)c(C(=O)/C=C/c2cccc(Br)c2)c(O)c1Br |  | 24.1 |  | 57 | 13 | 8.2 | 38.2 | 19.6 |  |  |  |
| CC(=O)Oc1ccccc1C(=O)O |  |  | 38.5 |  |  |  |  |  |  |  |  |
| COc1cc(OC)c(C(=O)/C=C/c2ccccc2F)c(O)c1Br |  | 29.9 |  | 38 | 24 |  | 16.8 | 29.7 |  |  | Not Active |
| COc1ccc(/C=C/C(=O)c2c(OC)cc(OC)c(Br)c2O)cc1 |  | 38.4 |  | 53 | 38 | 7.4 | 49.4 | 34.3 |  |  |  |
| COc1cc(OC)c(C(=O)/C=C/c2ccc(Cl)cc2Cl)c(O)c1Br |  | 17.3 |  | 53 | 46 | 8.9 | 30.2 | 17.4 |  |  |  |
| COc1cc(/C=C/C(=O)c2c(OC)cc(OC)c(Br)c2O)cc(OC)c1 |  |  |  | 37 | 25 | 11.4 | 23.5 | 18.4 |  |  |  |
| COc1cc(OC)c(C(=O)/C=C/c2ccccc2Cl)c(O)c1Br |  | 15.8 |  | 72 | 40 | 15.9 | 32.3 | 14.3 |  |  |  |
| COc1cc(OC)c(C(=O)/C=C/c2cccc(C#N)c2)c(O)c1Br |  | 27.4 |  | 57 | 26 | 0.7 | 25.6 | 17.3 |  |  |  |
| COc1cc(OC)c(C(=O)/C=C/c2ccc(Cl)c([N+](=O)[O-])c2)c(O)c1Br |  | 14.3 |  | 49 | 34 | 14.2 |  | 26 |  |  |  |
| COc1cc(OC)c(C(=O)/C=C/c2cccc([N+](=O)[O-])c2)c(O)c1Br |  | 23.7 |  | 50 | 31 | 10.1 | 18.8 | 26.2 |  |  |  |
| O=C(O)c1ccccc1O |  |  |  |  |  |  |  |  |  | 26.5 |  |
| COc1cc(OC)c(C(=O)/C=C/c2ccc(Cl)cc2)c(O)c1Br |  | 18.4 |  | 51 | 43 | 1.4 | 38.2 | 15.7 |  |  |  |
| COc1cc(OC)c(C(=O)/C=C/c2ccccc2C(F)(F)F)c(O)c1Br |  | 13.7 |  | 52 | 27 | 3.2 | 47 | 10 |  |  |  |
| O=C(O)c1cc(O)c(O)c(O)c1 |  | 91 |  |  |  |  |  |  |  |  |  |
| COc1cc(OC)c(C(=O)/C=C/c2cc[nH]c2)c(O)c1Br |  | 26.7 |  | 78 | 42 | 0.6 |  | 26 |  |  |  |
| O=C1O[C@H]([C@@H](O)CO)C(O)=C1O |  |  |  |  |  |  | 41.2 | 76.6 |  |  |  |
| COc1cc(OC)c(C(=O)/C=C/c2cccnc2)c(O)c1Br |  | 21.1 |  | 85 | 45 | 0.1 | 44.1 | 16.6 |  |  |  |
| COc1ccc(OC)c(/C=C/C(=O)c2c(OC)cc(OC)c(Br)c2O)c1 |  | 23 |  | 57 | 22 | 10.9 | 31.6 | 22.9 |  |  |  |
| COc1cc(OC)c(C(=O)/C=C/c2cccc(F)c2)c(O)c1Br |  | 12 |  | 63 | 36 | 1.2 |  | 12.2 |  |  |  |
